In data set [1] the test system is HBV viral production in AD38 cells. Nature of the data set: Viral load production in AD38 cells by quantitative PCR of the HBV core sequence in supernatant. It counts as cell-based. Particulars: Hepatitis B virus, 144 h; 10 μM compound, 6 days at 37° C., viral load in supernatant compared against DMSO control wells; read-out: AD38 Viral Load (CpAM/DMSO %) at 10 μM. The essentials:
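AD38 cells seeded at 50,000/well, treated 6 days at 37° C with compound added as 10× solution in 10% DMSO. HBV core sequence in clarified supernatant quantified by TaqMan qPCR against known standards; viral load compared with DMSO control wells.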

A further data set deals with AD38 cells. The experiment in a line: Viability of AD38 cells (Promega CellTiter-Glo) at the end of compound treatment. It counts as cell-based. Particulars: 10 μM compound, 6 days, luminescence normalized against DMSO control wells (controls being 100%). In short, it runs like this:
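AD38 cells seeded at 50,000/well received compound from a 10× solution in 10% DMSO and were incubated 6 days at 37° C. Viability was then read by CellTiter-Glo luminescence in tetracycline-free medium with 2% FBS and 1% DMSO, normalized to DMSO control wells (100%) and reported as percent viability.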

Structures are written as SMILES.

Consider 47 molecules from patent publication US10183936B2, “Hepatitis B core protein allosteric modulators” (priority 2014, dated 2019).

With `C[C@H](O)CNC(=O)c1ccc2c(c1)NC(=O)c1ccccc1S2` [Compound 1222], the activity at 10 µM in data set [1] is 32%. The “AD38 Viability Normalized Result (CPAM/DMSO %) at 10 μM” value in the data set with AD38 cells is given as 100%.
`O=C(NCc1ccncc1)c1ccc2c(c1)NC(=O)c1ccccc1S2` [Compound 1572]: the activity at 10 µM in data set [1] is 5%. Moreover, the “AD38 Viability Normalized Result (CPAM/DMSO %) at 10 μM” value in the data set on AD38 cells stood at 116%.
For `O=C(Nc1ccc2ncsc2c1)c1ccc2c(c1)NC(=O)c1cc(F)ccc1S2` [Compound 1325], in that order: 26% and 90%.
For `O=C(NCc1scnc1Cl)c1ccc2c(c1)NC(=O)c1ccccc1S2` [Compound 1632], in that order: 2% and 122%.
For `O=C(NCCc1ccc(-n2cncn2)cc1)c1ccc2c(c1)NC(=O)c1ccccc1S2` [Compound 1249], in that order: 34% and 108%.
Consider `Cc1c(C(=O)NCCc2cnco2)ccc2c1NC(=O)c1ccccc1S2` [Compound 1560], for which the activity at 10 µM in data set [1] was 13%. Further, the “AD38 Viability Normalized Result (CPAM/DMSO %) at 10 μM” value in the data set with AD38 cells is reported as 92%.
For `COC(C)(C)CCNC(=O)c1ccc2c(c1)NC(=O)c1ccccc1S2` [Compound 1238], in that order: 26% and 104%.
For `O=C(NCCc1cnco1)c1ccc2c(c1)NC(=O)c1ccc(F)cc1S2` [Compound 1402], in that order: 12% and 81%.
For `O=C(NCCc1cccc(OC(F)(F)F)c1)c1ccc2c(c1)NC(=O)c1ccccc1S2` [Compound 1201], in that order: 1% and 50%.
`O=C(NCc1cncs1)c1ccc2c(c1)NC(=O)c1ccccc1N2Cc1ccccc1` [Compound 1510]: the activity at 10 µM in data set [1] was 62%. Further, the “AD38 Viability Normalized Result (CPAM/DMSO %) at 10 μM” value in the data set with AD38 cells was 82%.
As to `Nc1nnc(CCNC(=O)c2ccc3c(c2)NC(=O)c2ccccc2S3)s1` [Compound 1568], the activity at 10 µM in data set [1] turned out to be 1%. Further, in the data set with AD38 cells, the “AD38 Viability Normalized Result (CPAM/DMSO %) at 10 μM” value is listed as 100%.
Consider `O=C(NCCOc1ccc(F)cc1)c1ccc2c(c1)NC(=O)c1ccccc1S2` [Compound 1208], for which, in data set [1], the activity at 10 µM was 11%. Also, the “AD38 Viability Normalized Result (CPAM/DMSO %) at 10 μM” value in the data set on AD38 cells is 103%.
For `O=C(Nc1nc2ccc(F)cc2s1)c1ccc2c(c1)NC(=O)c1ccccc1S2(=O)=O` [Compound 1637], in that order: 32% and 123%.
With `O=C(Nc1ccncc1)c1ccc2c(c1)NC(=O)c1c(F)cccc1S2` [Compound 1463], in data set [1], the activity at 10 µM turned out to be 31%. In addition, the “AD38 Viability Normalized Result (CPAM/DMSO %) at 10 μM” value in the data set with AD38 cells is reported as 97%.
In the case of `Nc1ncc(CNC(=O)c2ccc3c(c2)NC(=O)c2ccccc2S3)s1` [Compound 1613], the activity at 10 µM in data set [1] amounted to 0%. Also, the “AD38 Viability Normalized Result (CPAM/DMSO %) at 10 μM” value in the data set on AD38 cells was 122%.
For `CN(C)S(=O)(=O)c1ccc(CCNC(=O)c2ccc3c(c2)NC(=O)c2c(F)cccc2S3)cc1` [Compound 1477], in that order: 67% and 16%.
For `O=C(NCCc1ccccn1)c1ccc2c(c1)NC(=O)c1ccc(F)cc1S2` [Compound 1348], in that order: 0% and 107%.
For `O=C(NCc1cccc(F)c1)c1ccc2c(c1)NC(=O)c1ccccc1S2` [Compound 1168], in that order: 10% and 117%.
For the molecule `O=C(NC[C@H](C(=O)O)c1ccccc1)c1ccc2c(c1)NC(=O)c1ccccc1S2` [Compound 1268, (R)-3-(11-oxo-10, 11-dihydrodibenzo [b,f] [1,4]thiazepine-8-carboxamido)-2-phenylpropanoic acid], the activity at 10 µM in data set [1] stood at 77%. In addition, in the data set with AD38 cells, the “AD38 Viability Normalized Result (CPAM/DMSO %) at 10 μM” value was 106%.
For `O=C(Nc1ccncc1)c1ccc2c(c1)NC(=O)c1ccccc1S2(=O)=O` [Compound 1462], in that order: 35% and 99%.
For `O=C(NCCc1cncs1)c1ccc2c(c1)NC(=O)c1cccc(F)c1S2` [Compound 1528], in that order: 4% and 85%.
For `CCN1c2ccc(C(=O)NCc3cncs3)cc2NC(=O)c2ccccc21` [Compound 1534], the activity at 10 µM in data set [1] was determined as 5%. For the same molecule, in the data set on AD38 cells, the “AD38 Viability Normalized Result (CPAM/DMSO %) at 10 μM” value was determined as 109%.
For `O=C(NCCc1ccc(N2CCCCC2)cc1)c1ccc2c(c1)NC(=O)c1ccccc1S2` [Compound 1121], in that order: 6% and 109%.
For `O=C(Nc1nc(-c2ccccc2)co1)c1ccc2c(c1)NC(=O)c1cc(F)ccc1S2` [Compound 1454], in that order: 27% and 95%.
For `O=C(NCCc1cccnn1)c1ccc2c(c1)NC(=O)c1ccccc1S2` [Compound 1569], in that order: 1% and 114%.
As to `O=C(NCCC1CCCCC1)c1ccc2c(c1)NC(=O)c1ccncc1S2` [Compound 1237], the activity at 10 µM in data set [1] worked out at 4%. In addition, in the data set on AD38 cells, the “AD38 Viability Normalized Result (CPAM/DMSO %) at 10 μM” value is recorded as 66%.
For the molecule `O=C1Nc2cc(S(=O)(=O)Nc3ccc(F)cc3F)ccc2Sc2ccccc21` [Compound 1526], the activity at 10 µM in data set [1] turned out to be 57%. In addition, in the data set on AD38 cells, the “AD38 Viability Normalized Result (CPAM/DMSO %) at 10 μM” value is reported as 92%.
For `Cc1nnc(NC(=O)c2ccc3c(c2)NC(=O)c2cc(F)ccc2S3)o1` [Compound 1503], in that order: 40% and 87%.
For `CN(C)CCCOc1ccc(CCNC(=O)c2ccc3c(c2)NC(=O)c2ccccc2S3)cc1.Cl` [Compound 1155], in that order: 18% and 103%.
As for `O=C(NCc1cncs1)c1ccc2c(c1)NC(=O)c1ccccc1N2` [Compound 1602, 11-oxo-N-(thiazol-5-ylmethyl)-10, 11-dihydro-5H-dibenzo [b,e] [1,4] diazepine-8-carboxamide], in data set [1], the activity at 10 µM was found to be 38%. Further, in the data set on AD38 cells, the “AD38 Viability Normalized Result (CPAM/DMSO %) at 10 μM” value is on record as 116%.
For `O=C(NCc1cnco1)c1ccc2c(c1)NC(=O)c1ccc(F)cc1S2` [Compound 1349], in that order: 12% and 102%.
For `O=C1Nc2c(cc(F)c(C(=O)NCc3cccnc3)c2F)Sc2ccccc21` [Compound 1546], in that order: 65% and 89%.
For `O=C(Nc1ccc(F)cc1)c1ccc2c(c1)NC(=O)c1cc(F)ccc1S2` [Compound 1316], in that order: 32% and 89%.
On to `CN1c2ccc(C(=O)NCCc3cccnc3)cc2NC(=O)c2ccccc21` [Compound 1549], for which, in data set [1], the activity at 10 µM was found to be 7%. Besides, in the data set with AD38 cells, the “AD38 Viability Normalized Result (CPAM/DMSO %) at 10 μM” value came out at 109%.
For `O=C(NCC1CCOC1)c1ccc2c(c1)NC(=O)c1ccccc1S2` (stereo not shown) [Compound 1606], in that order: 7% and 104%.
For `O=C(NCCc1ccccn1)c1cc2c(cc1F)Sc1ccccc1C(=O)N2` [Compound 1394], in that order: 55% and 94%.
For `O=C(NCCc1cccnc1)c1cc2c(cc1F)Sc1ccccc1C(=O)N2` [Compound 1395], in that order: 64% and 79%.
Regarding `O=C(NCCc1cccnc1)c1ccc2c(c1)NC(=O)c1ccc(F)cc1S2` [Compound 1377], the activity at 10 µM in data set [1] amounted to 5%. Moreover, in the data set on AD38 cells, the “AD38 Viability Normalized Result (CPAM/DMSO %) at 10 μM” value is on record as 65%.
For `O=C(NCCc1cccnc1)c1ccc2c(c1)NC(=O)c1ccccc1[S+]2[O-]` (stereo not shown) [Compound 1389], in that order: 15% and 89%.
For `O=C1Nc2cc(S(=O)(=O)NCCc3cncnc3)ccc2Sc2ccccc21` [Compound 1597], in that order: 64% and 87%.
For `O=C(Nc1ccc(-c2ccccc2)cc1)c1ccc2c(c1)NC(=O)c1cc(F)ccc1S2` [Compound 1326], in that order: 23% and 95%.
Take `O=C(NCc1cncs1)c1ccc2c(c1)NC(=O)c1cc(F)ccc1S2` [Compound 1309]: the activity at 10 µM in data set [1] came out at 1%. Moreover, in the data set with AD38 cells, the “AD38 Viability Normalized Result (CPAM/DMSO %) at 10 μM” value is 107%.
For `Cc1ccccc1CNC(=O)c1ccc2c(c1)NC(=O)c1ccccc1S2` [Compound 1187], in that order: 1% and 73%.
For `COc1cccc(CNC(=O)c2ccc3c(c2)NC(=O)c2ccccc2S3)c1` [Compound 1160], in that order: 2% and 105%.
For `O=C1Nc2cc(S(=O)(=O)N3CCC(O)CC3)ccc2Sc2ccccc21` [Compound 1431], in that order: 115% and 92%.
As to `O=C(NCc1cscn1)c1ccc2c(c1)NC(=O)c1ccccc1S2` [Compound 1584], the activity at 10 µM in data set [1] is 52%. For the same molecule, in the data set on AD38 cells, the “AD38 Viability Normalized Result (CPAM/DMSO %) at 10 μM” value worked out at 95%.
As to `Cc1c(C(=O)NCCc2cncnc2)ccc2c1NC(=O)c1ccccc1S2` [Compound 1529], the activity at 10 µM in data set [1] came out at 12%. For the same molecule, the “AD38 Viability Normalized Result (CPAM/DMSO %) at 10 μM” value in the data set on AD38 cells is given as 111%.
